Literature values as cited in patent US9668844B2, “Device for fixation at a dental site” (Colldent Y.A. Ltd., priority 2013, dated 2017).

Experiments:
bacteria = settings: see Paine, M. L. et al JADA 129 (1998)

Compound | acute lethal dose of fluoride (F) (acute) [mg F/Kg body weight] | chronic toxicity (chronic) [mg F/Kg] | antibacterial activity (bacteria)
F [fluoride] | 33 | 0.1 | 
[F][Sn][F] [stannous fluoride] |  |  | has shown antibacterial activity
